Experimental data reported in patent publication EP3046573B1, “AMYLIN ANALOGUES” (Zealand Pharma A/S, priority 2013, dated 2015).
Numbered stars: 1 amine (or outer) side, 2 acyl side, 3 side chain; on linkers, the order of the positions; unused ones are H or OH. Bridge positions count the residues as written; N and C are the ends. Square brackets hold non-standard residues; d marks the D form. Peptide text beside a SMILES is read from it. * marks the point of attachment. C20 diacid = O=C(O)CCCCCCCCCCCCCCCCCCC(=O)*; γGlu = O=C(O)[C@H](CCC(=O)[*:2])N[*:1]; Hyp = O=C(O)[C@@H]1C[C@@H](O)CN1; NMeI = CC[C@H](C)[C@H](NC)C(=O)O; Sar = CNCC(=O)O

Experiment: Pharmacokinetic (PK) profiling in rats
Assay type: in vivo
Details: male, Sprague Dawley, rat, plasma, single sc bolus, 100 nmol/kg (18, NN96), 20 nmol/kg (72, 76), 30 nmol/kg (73, 82, 118, 162, 166, 172); for CL/F: apparent clearance; for half-life: terminal elimination half-life, read-out: t½ (converted)
Description: Sprague Dawley male rats were given a single subcutaneous (sc) bolus of each peptide to be tested at doses as specified below..
Study A: Following the administration of a 100 nmol/kg dose of a test peptide of the invention (Compound 18) and a comparison pramlintide analogue NN96 (see Example 5, above), respectively, blood samples were drawn from the tail vein at 0.5, 3, 8, 15, 36, 60 and 81 hours post-dosing. 4 rats were used (2 rats per compound). The rats were euthanized immediately after the last blood sampling by overdose of O2/CO2.
Study B: 20 nmol/kg doses of Compound 72 and Compound 76, respectively, of the invention were administered. Blood samples were drawn by sublingual bleeding prior to dosing and at 2, 6, 12, 24, 48, 72 and 96 hours after dosing. 4 rats were used (2 rats per compound). The rats were euthanized immediately after the last blood sampling by overdose of O2/CO2.
Study C: 30 nmol/kg doses of Compound 73, Compound 82 and Compound 118, respectively, of the invention were administered. Blood samples were drawn from the tail vein prior to dosing and at 24, 48, 72 and 96 hours after dosing. Blood samples were taken from two rats at each time point, and only 2 blood samples were drawn from each rat, i.e. 8 rats were used for each compound. The rats were euthanized immediately after the last blood sampling by concussion and cervical dislocation.
Study D: 30 nmol/kg doses of Compound 162, Compound 166 and Compound 172 were administered. Blood samples were drawn from the tail vein prior to dosing and at 24, 48, 72, 96 and 168 hours after dosing. Blood samples were taken from two rats at each time point, and only 2 blood samples were drawn from each rat, i.e. 10 rats were used for each compound. The rats were euthanized immediately after the last blood sampling by concussion and cervical dislocation.
The dosing vehicle used for each test peptide was a mannitol-containing histidine buffer (pH 7.0). Plasma samples were analyzed after precipitation with ethanol by liquid chromatography mass spectrometry (LC-MS/MS). Mean plasma concentrations were used for calculation of the pharmacokinetic parameters using the non-compartmental approach in Phoenix WinNonlin 6.3.
Plasma terminal elimination half-life (t½) was determined as In(2)/λz, where λz is the magnitude of the slope of the log linear regression of the log concentration versus time profile during the terminal phase. Apparent clearance (CL/F) was determined as dose/AUCinf (sc), where AUCinf is the area under the plasma concentration vs. time curve extrapolated to infinity (AUCinf = AUClast + Clast/λz, where Clast is the last observed plasma concentration).

`CC[C@H](C)[C@@H](C(=O)N[C@@H](CC(C)C)C(=O)N[C@@H](CO)C(=O)N[C@@H](CO)C(=O)N[C@H](C(=O)N[C@@H](CCC(=O)O)C(=O)N[C@H](C(=O)NCC(=O)N[C@@H](CO)C(=O)N[C@@H](CCC(=O)O)C(=O)N[C@H](C(=O)N1CCC[C@H]1C(N)=O)[C@@H](C)O)C(C)C)[C@@H](C)O)N(C)C(=O)[C@H](C)NC(=O)CN(C)C(=O)[C@H](Cc1ccccc1)NC(=O)[C@H](CO)NC(=O)[C@H](CO)NC(=O)[C@H](CO)NC(=O)[C@H](CO)NC(=O)[C@H](CCCNC(=N)N)NC(=O)[C@H](Cc1c[nH]cn1)NC(=O)[C@H](CC(C)C)NC(=O)[C@H](Cc1ccccc1)NC(=O)[C@H](CCC(=O)O)NC(=O)[C@H](C)NC(=O)[C@H](CC(C)C)NC(=O)[C@H](CCCNC(=N)N)NC(=O)[C@H](C)NC(=O)[C@@H](NC(=O)[C@H](C)NC(=O)[C@@H]1CSSC[C@H](NC(=O)[C@H](CCCNC(=N)N)NC(=O)CC[C@H](NC(=O)CCCCCCCCCCCCCCCCCCC(=O)O)C(=O)O)C(=O)N[C@@H](CC(N)=O)C(=O)N[C@@H]([C@@H](C)O)C(=O)N[C@@H](C)C(=O)N[C@@H]([C@@H](C)O)C(=O)N1)[C@@H](C)O` [Compound 118, [19CD]-isoGlu-RC()NTATC()ATARLAEFLHRSSSSF-Gly(Me)-A-Ile(Me)-LSSTEVGSETP-NH2] ({C20 diacid-γGlu}-RCNTATCATARLAEFLHRSSSSF[Sar]A[NMeI]LSSTEVGSETP-NH2; disulfide 2-7) gave a CL/F of 3.51 mL/h/kg and a half-life of 56.4 h.
Work on `CC[C@H](C)[C@@H](C(=O)N[C@@H](CC(C)C)C(=O)N[C@@H](CO)C(=O)N[C@@H](CO)C(=O)N[C@H](C(=O)N[C@@H](CCC(=O)O)C(=O)N[C@H](C(=O)NCC(=O)N[C@@H](CO)C(=O)N[C@@H](CCC(=O)O)C(=O)N[C@H](C(=O)N1CCC[C@H]1C(N)=O)[C@@H](C)O)C(C)C)[C@@H](C)O)N(C)C(=O)[C@H](C)NC(=O)CN(C)C(=O)[C@H](Cc1ccccc1)NC(=O)[C@H](CO)NC(=O)[C@H](CO)NC(=O)[C@H](CCCNC(=N)N)NC(=O)[C@H](Cc1c[nH]cn1)NC(=O)[C@H](CC(C)C)NC(=O)[C@H](Cc1ccccc1)NC(=O)[C@H](CCC(=O)O)NC(=O)[C@H](C)NC(=O)[C@H](CC(C)C)NC(=O)[C@H](CCCNC(=N)N)NC(=O)[C@H](CCC(=O)O)NC(=O)[C@@H](NC(=O)[C@H](C)NC(=O)[C@@H]1CSSC[C@H](NC(=O)[C@H](CCCNC(=N)N)NC(=O)CC[C@H](NC(=O)CCCCCCCCCCCCCCCCCCC(=O)O)C(=O)O)C(=O)NCC(=O)N[C@@H]([C@@H](C)O)C(=O)N[C@@H](C)C(=O)N[C@@H]([C@@H](C)O)C(=O)N1)[C@@H](C)O` [Compound 162, [19CD]-isoGlu-RC()GTATC()ATERLAEFLHRSSF-Gly(Me)-A-Ile(Me)-LSSTEVGSETP-NH2] ({C20 diacid-γGlu}-RCGTATCATERLAEFLHRSSF[Sar]A[NMeI]LSSTEVGSETP-NH2; disulfide 2-7) yielded a CL/F of 5.92 mL/h/kg and a half-life of 29.8 h.
In the case of `CC[C@H](C)[C@@H](C(=O)N[C@@H](CC(C)C)C(=O)N[C@@H](CO)C(=O)N[C@@H](CO)C(=O)N[C@H](C(=O)N[C@@H](CCC(=O)O)C(=O)N[C@H](C(=O)NCC(=O)N[C@@H](CO)C(=O)N[C@@H](CCC(=O)O)C(=O)N[C@H](C(=O)N1C[C@H](O)C[C@H]1C(N)=O)[C@@H](C)O)C(C)C)[C@@H](C)O)N(C)C(=O)[C@H](C)NC(=O)CN(C)C(=O)[C@H](Cc1ccccc1)NC(=O)[C@H](CO)NC(=O)[C@H](CO)NC(=O)[C@H](CCCNC(=N)N)NC(=O)[C@H](Cc1c[nH]cn1)NC(=O)[C@H](CC(C)C)NC(=O)[C@H](Cc1ccccc1)NC(=O)[C@H](CCC(=O)O)NC(=O)[C@H](C)NC(=O)[C@H](CC(C)C)NC(=O)[C@H](CCCNC(=N)N)NC(=O)[C@H](CCC(=O)O)NC(=O)[C@@H](NC(=O)[C@H](C)NC(=O)[C@@H]1CSSC[C@H](NC(=O)[C@H](CCCNC(=N)N)NC(=O)CC[C@H](NC(=O)CCCCCCCCCCCCCCCCCCC(=O)O)C(=O)O)C(=O)NCC(=O)N[C@@H]([C@@H](C)O)C(=O)N[C@@H](C)C(=O)N[C@@H]([C@@H](C)O)C(=O)N1)[C@@H](C)O` [Compound 166, [19CD]-isoGlu-RC()GTATC()ATERLAEFLHRSSF-Gly(Me)-A-Ile(Me)-LSSTEVGSET-Hyp-NH2] ({C20 diacid-γGlu}-RCGTATCATERLAEFLHRSSF[Sar]A[NMeI]LSSTEVGSET[Hyp]-NH2; disulfide 2-7), the CL/F is reported as 3.79 mL/h/kg and the half-life is reported as 27.9 h.
`CC[C@H](C)[C@@H](C(=O)N[C@@H](CC(C)C)C(=O)N[C@@H](CO)C(=O)N[C@@H](CO)C(=O)N[C@H](C(=O)N[C@@H](CC(=O)O)C(=O)N[C@H](C(=O)NCC(=O)N[C@@H](CO)C(=O)N[C@@H](CC(=O)O)C(=O)N[C@H](C(=O)N1CCC[C@H]1C(N)=O)[C@@H](C)O)C(C)C)[C@@H](C)O)N(C)C(=O)[C@H](C)NC(=O)CN(C)C(=O)[C@H](Cc1ccccc1)NC(=O)[C@H](CO)NC(=O)[C@H](CO)NC(=O)[C@H](CCCNC(=N)N)NC(=O)[C@H](Cc1c[nH]cn1)NC(=O)[C@H](CC(C)C)NC(=O)[C@H](Cc1ccccc1)NC(=O)[C@H](CCC(=O)O)NC(=O)[C@H](C)NC(=O)[C@H](CC(C)C)NC(=O)[C@H](CCCNC(=N)N)NC(=O)[C@H](CC(=O)O)NC(=O)[C@@H](NC(=O)[C@H](C)NC(=O)[C@@H]1CSSC[C@H](NC(=O)[C@H](CCCNC(=N)N)NC(=O)CC[C@H](NC(=O)CCCCCCCCCCCCCCCCCCC(=O)O)C(=O)O)C(=O)N2CCC[C@H]2C(=O)N[C@@H]([C@@H](C)O)C(=O)N[C@@H](C)C(=O)N[C@@H]([C@@H](C)O)C(=O)N1)[C@@H](C)O` [Compound 172, [19CD]-isoGlu-RC()PTATC()ATDRLAEFLHRSSF-Gly(Me)-A-Ile(Me)-LSSTDVGSDTP-NH2] ({C20 diacid-γGlu}-RCPTATCATDRLAEFLHRSSF[Sar]A[NMeI]LSSTDVGSDTP-NH2; disulfide 2-7) gave a CL/F of 9.16 mL/h/kg and a half-life of 24.4 h.
Compound `CC[C@H](C)[C@H](NC(=O)[C@@H]1CCCN1C(=O)CNC(=O)[C@H](Cc1ccccc1)NC(=O)[C@H](CC(N)=O)NC(=O)[C@H](CC(N)=O)NC(=O)[C@H](CO)NC(=O)[C@H](CO)NC(=O)[C@H](Cc1c[nH]cn1)NC(=O)[C@H](Cc1c[nH]cn1)NC(=O)[C@H](CC(C)C)NC(=O)[C@H](Cc1ccccc1)NC(=O)[C@H](CCC(=O)O)NC(=O)[C@H](C)NC(=O)[C@H](CC(C)C)NC(=O)[C@H](CCCNC(=N)N)NC(=O)[C@H](CCC(N)=O)NC(=O)[C@@H](NC(=O)[C@H](C)NC(=O)[C@@H]1CSSC[C@H](NC(=O)[C@H](CCCNC(=N)N)NC(=O)CC[C@H](NC(=O)CCCCCCCCCCCCCCCCCCC(=O)O)C(=O)O)C(=O)N[C@@H](CC(N)=O)C(=O)N[C@@H]([C@@H](C)O)C(=O)N[C@@H](C)C(=O)N[C@@H]([C@@H](C)O)C(=O)N1)[C@@H](C)O)C(=O)N[C@@H](CC(C)C)C(=O)N1CCC[C@H]1C(=O)N1CCC[C@H]1C(=O)N[C@H](C(=O)N[C@@H](CC(N)=O)C(=O)N[C@H](C(=O)NCC(=O)N[C@@H](CO)C(=O)N[C@@H](CC(N)=O)C(=O)N[C@H](C(=O)N1CCC[C@H]1C(N)=O)[C@@H](C)O)C(C)C)[C@@H](C)O` [NN96, N-α-[(S)-4-carboxy-4-(19-carboxynonadecanoylamino)butyryl]-[Arg1,Glu14,His17,Pro37]-pramlintide, reference compound] ({C20 diacid-γGlu}-RCNTATCATQRLAEFLHHSSNNFGPILPPTNVGSNTP-NH2; disulfide 2-7) has a CL/F of 4.73 mL/h/kg and a half-life of 34.7 h.
